# Measured values: patent US10555930B2, “Complex of a glucopyranosyl derivative and preparation method and use thereof” (SUNSHINE LAKE PHARMA CO., LTD., priority 2015, dated 2020)
# Key:
# [1] = Measurement of solubility (Chinese Pharmacopoeia 2010 method); type: physicochemical
# Source text: Judgement standard of solubility are shown as table A.
# [2] = Measurement of stability (high-temperature, high-humidity and photostability tests; HPLC impurity content); type: physicochemical; details: for total impurity / purity: 210 nm
# Experimental: An appropriate amount of the Complex (IA) sample (prepared from example 2) was weighed and tiled on a clean culture dish at a thickness of ≤5 mm, and analyzed under the following conditions:
# The test sample was placed under a high temperature condition (60±2° C.) for 10 d, the relative indexes were measured at the fifth and tenth days. […] If no significant change, the test at 40° C. was not necessary.
# The test sample was placed under a 25° C. and RH 90%±5% condition for 10 d, and the sample were measured at the fifth and tenth days. Test items should include a moisture-absorption weight gain. If weighting percentage of moisture absorption was more than 5%, the test should be carried out under a 25° C. and RH 75%±5% condition using the same method; If weighting percentage of moisture absorption was less than 5%, and other inspection items met the requirements, the test was not necessary. The constant humidity condition can be realized by adopting constant temperature humidity chamber or placing a saturated saline solution under a closed container. […]
# The test sample was placed in light box or other suitable light vessel under a 4500 Lx±500 Lx of illuminance condition for 10 d, and the sample were measured at the fifth and tenth days.
# The impurity content of the sample was calculated by the normalization method of peak area using an HPLC chromatographic instrument under the above condition, the analytic conditions were shown below:
# The detection was performed on Agilent 1200DAD high pressure liquid chromatography spectrometer (Zorbax Eclipse Plus C18 150×4.6 mm chromatographic column).
# The test condition of HPLC: the run time was 30 minutes (min); the column temperature was 35° C.; the detection was carried out at the wavelength of 210 nm and 225 nm;
# Mobile phase: phase C: acetonitrile phase D: ultrapure water flow rate: 1.0 mL/min.
# Gradient elution, the ratio of mobile phase was shown as table B.
# [3] = Measurement of hygroscopicity (Chinese Pharmacopoeia 2010, part II, appendix XIXJ); type: physicochemical; details: 25° C.±1° C., constant humidity (ammonium chloride or ammonium sulfate saturated solution), 24 h
# Experimental: Test method: According to the method regulated by Chinese pharmacopoeia 2010, part II, appendix XIXJ, a dry glass weighing bottle with a stopper (outside diameter is 50 mm, high is 15 mm) was placed in a thermostatic drier (an ammonium chloride or ammonium sulfate saturated solution was placed in the bottom) at 25° C.±1° C. before one day of experiment, the empty glass weighing bottle with a stopper was weighed accurately by using METTLERTOLEDO XP205DR analytical balance, and recorded as m1. An appropriate amount of the Complex (IA) sample (prepared from example 2) was tiled on the above weighing bottle at a thickness of 1 mm, which was weighed accurately and recorded as m2. Opening the bottle, the bottle was placed under the above constant temperature and humidity condition for 24 h […]. Closing the bottle with the stopper, the bottle was weighed accurately, and recorded as m3, the weight gain percentage (%) was calculated.
# The judgement of the results hygroscopicity was shown as table C.
# human SGLT-1 = molecular target: T1, human SGLT-1 (Homo sapiens, UniProt P13866); assay: Inhibitory activity against SGLT-1, [14C]-AMG uptake in CHO cells; type: cell-based; details: CHO cells expressing human SGLT-1, [14C]-AMG
# T1 construct: expressed in transfected cells; host or cells: CHO cells (Flp-in CHO)
# T1 sequence (P13866 1-664): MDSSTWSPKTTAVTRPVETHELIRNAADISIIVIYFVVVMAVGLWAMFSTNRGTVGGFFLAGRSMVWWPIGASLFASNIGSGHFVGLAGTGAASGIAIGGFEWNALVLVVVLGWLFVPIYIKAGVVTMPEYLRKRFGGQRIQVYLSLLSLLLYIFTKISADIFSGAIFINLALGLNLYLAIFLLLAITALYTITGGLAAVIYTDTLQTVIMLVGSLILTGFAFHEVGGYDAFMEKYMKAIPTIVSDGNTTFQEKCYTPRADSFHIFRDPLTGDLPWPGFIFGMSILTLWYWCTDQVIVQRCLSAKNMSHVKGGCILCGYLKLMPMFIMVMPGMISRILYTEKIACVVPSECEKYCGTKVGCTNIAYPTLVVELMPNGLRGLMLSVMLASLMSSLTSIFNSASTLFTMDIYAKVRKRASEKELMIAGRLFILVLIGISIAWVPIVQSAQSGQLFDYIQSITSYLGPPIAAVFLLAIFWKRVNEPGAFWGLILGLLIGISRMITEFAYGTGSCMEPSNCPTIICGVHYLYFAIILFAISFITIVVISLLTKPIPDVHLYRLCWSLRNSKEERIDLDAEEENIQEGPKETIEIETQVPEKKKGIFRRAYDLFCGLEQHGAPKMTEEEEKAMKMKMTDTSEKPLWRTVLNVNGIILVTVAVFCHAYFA
# Experimental: The following method was used for detecting inhibitory activity of the compounds of the invention against SGLT-1 and SGLT-2.
# 3×10^4 of FIP-in CHO cells transfected Mock and CHO cells expressing human SGLT-1/SGLT-2 gene were seeded into a 96-well cell culture plate; the cells were incubated for 12 hours, and then to each well was added 150 μL of Na-free buffer to wash the cells once; and then to each well were added 50 μL of Na buffer containing the compound at different concentrations and 0.5 μM [^14C]-AMG, and the plate was incubated in a incubator at 37° C. for 1 hour, the reaction was terminated by adding 150 μL of pre-cooled Na-free buffer; the cells were further washed with Na-free buffer 3 times and the residual liquid was removed; to each well was added 20 μL of pre-cooled NaOH ([…]), the plate was vibrated at 900 rpm for 5 min; and then to each well was added 80 μL of scintillation solution, the plate was vibrated at 600 rpm for 5 min; the plate was analyzed on liquid scintillation counter.
# [4] = solvent DMA, sampling weight 100.02, solvent volume 0.095 mL
# [5] = solvent DMSO, sampling weight 100.16, solvent volume 0.095 mL
# [6] = solvent acetonitrile, sampling weight 100.20, solvent volume 2.90 mL
# [7] = solvent ethanol, sampling weight 100.10, solvent volume 2.90 mL
# [8] = solvent methanol, sampling weight 100.23, solvent volume 0.095 mL
# [9] = high humidity (25° C., RH 90%±5%), 5 d, HPLC
# [10] = high humidity (25° C., RH 90%±5%), 10 d, HPLC
# [11] = high-temperature (60±2° C.), 5 d, HPLC
# [12] = high-temperature (60±2° C.), 10 d, HPLC
# [13] = illumination (4500 Lx±500 Lx), 5 d, HPLC
# [14] = illumination (4500 Lx±500 Lx), 10 d, HPLC
smiles,measurement,setting,value
"CCOc1ccc(Cc2cc([C@]34OC[C@]([C@@H](C)O)(O3)[C@@H](O)[C@H](O)[C@H]4O)ccc2Cl)cc1 [Complex (IA), Complex (IA) of (1R,2S,3S,4R,5S)-5-(4-chloro-3-(4-ethoxybenzyl)phenyl)-1-((1R)-1-hydroxyethyl)-6,8-dioxabicyclo[3.2.1]octane-2,3,4-triol (I-n) and L-pyroglutamic acid]",solubility (summary in words),"[1]; in acetonitrile, methanol, ethanol, DMSO and DMA",good solubility
same,solubility results,[1]; [4],Very soluble (1 g (mL) of solute can be dissolved completely in a <1 mL of solvent)
same,yes/no dissolved,[1]; [4],yes
same,solubility results,[1]; [5],Very soluble (1 g (mL) of solute can be dissolved completely in a <1 mL of solvent)
same,yes/no dissolved,[1]; [5],yes
same,solubility results,[1]; [6],Soluble (1 g (mL) of solute can be dissolved completely in a 10 to <30 mL of solvent)
same,yes/no dissolved,[1]; [6],yes
same,solubility results,[1]; [7],Soluble (1 g (mL) of solute can be dissolved completely in a 10 to <30 mL of solvent)
same,yes/no dissolved,[1]; [7],yes
same,solubility results,[1]; [8],Very soluble (1 g (mL) of solute can be dissolved completely in a <1 mL of solvent)
same,yes/no dissolved,[1]; [8],yes
same,yes/no dissolved,"[1]; solvent water, sampling weight 10.33, solvent volume 102 mL",no
same,total impurity,"[2]; 0 d, HPLC peak area normalization",0.15%
same,purity,"[2]; 0 d, HPLC",99.85%
same,purity,[2]; [9],99.85%
same,total impurity,[2]; [9],0.15%
same,purity,[2]; [10],99.81%
same,total impurity,[2]; [10],0.19%
same,purity,[2]; [11],99.83%
same,total impurity,[2]; [11],0.17%
same,purity,[2]; [12],99.81%
same,total impurity,[2]; [12],0.19%
same,stability (summary in words),"[2]; high-temperature, high humidity or illumination for 10 d",good stability
same,purity,[2]; [13],99.83%
same,total impurity,[2]; [13],0.17%
same,purity,[2]; [14],99.78%
same,total impurity,[2]; [14],0.22%
same,weight gain percentage,[3],0.27%
same,SGLT-1 inhibitory activity,human SGLT-1,has SGLT-2 and SGLT-1 inhibitory activity
